Results from patent US5968526A, “T cell epitopes of the major allergens from Dermatophagoides (house dust mite)” (Immulogic Pharamaceutical Corporation, priority 1995, dated 1999).

Tests used:
[1] = test system: T cell cultures reactive with Der p I from house dust mite-allergic subjects; assay: secondary T cell proliferation assay, Group I (Der p I) overlapping and candidate/unique peptides; percent of T cell reactivity; type: cell-based, human; conditions: patient 1733; for T cell stimulation index (S.I.): highest S.I. ≥2.0 recorded
Description: To determine whether a peptide (candidate peptide) or a combination of candidate peptides are likely to comprise a sufficient percentage of the T cell reactivity of house dust mite protein allergens, to induce T cell nonresponsiveness in a substantial percentage of a population of individuals sensitive to house dust mite allergen, an algorithm can be used. In accordance with one such algorithm, a set of overlapping peptides is produced by systematically dividing the protein allergen(s) of interest into al least two overlapping peptide regions of desired lengths (e.g., of about 12-30 amino acid residues in length, preferably not longer than about 25 amino acid residues in length with about 5-15 amino acid residues of overlap). This division into peptide regions can be arbitrary, can be made according to an algorithm, or can be wholly or partially based on regions of house dust mite Group I and/or Group II protein allergens known to comprise at least one T cell epitope. Preferably, at least 50% of the entire house dust mite protein allergen sequence and more preferably, the entire house dust mite protein allergen sequence is divided into two or more peptides. A human T cell stimulation index is determined for each of the peptides in an in vitro T cell proliferation assay as described herein for each individual tested in a population of individuals sensitive to the protein antigen. For example both WO93/08279 and WO94/24281 disclose T cell studies with overlapping peptides derived from Der p I, Der p II, Der f I and Der f II. A candidate peptide or combination of candidate peptides is selected based, at least in part, on the mean human T cell stimulation index of the candidate peptide in the set of peptides tested and the positivity index of the candidate peptide in the set of peptides tested (see, FIGS. 3 and 4). The human T cell stimulation index for the candidate peptide(s) is summed. For each individual, the human T cell stimulation index for the candidate peptide(s) is divided by the sum of the human T cells stimulation indices of the remaining peptides in the set of peptides tested to determine a percent of T cell reactivity as shown below:
Alternatively, the presence of T cell epitopes in the candidate peptide dependent on amino acids residues in an overlapping peptide located at either the N-terminus or C-terminus of the candidate peptide in the amino acid sequence of the protein antigen, but which epitopes are not present in the candidate peptide can be considered in calculating the percent of T cell reactivity in the candidate peptide by use of the following formula: [formula]
In this formula, "NT flanking peptide" refers to a peptide which comprises amino acid residues which overlap with amino acid residues located at the N-terminus of the candidate peptide in the amino acid sequence of the protein antigen from which the peptide is derived; "CT flanking peptide" refers to a peptide which comprises amino acid residues which overlap with amino acid residues located a the C-terminus of the candidate peptide in the amino acid sequence of the protein antigen from which the peptide is derived. In this calculation stimulation indices for the candidate peptide, the N-terminal flanking peptide and the C-terminal flanking peptide are added and divided by the sum total of the stimulation indices for the entire set of overlapping peptides obtain a percent of T cell reactivity for the candidate peptide. If a combination of two or more candidate peptides is selected each of which contains amino acid residues which overlap, this calculation cannot be used to determine a percent of T cell reactivity for each candidate peptide separately. However, a total percent of T cell reactivity for the combination of candidate peptides can be obtained. In this situation, the stimulation indices for all of the candidate peptides which overlap is included in the calculation. […]

[2] = test system: T cell lines primed in vitro with Der p II; assay: T cell proliferation with fine map and modified Group II peptides (Example XIV); type: cell-based, human; conditions: for positive T cell responses, modified peptides: 21 T cell lines, Der p II primed, FIG. 32a; for T cell response, Group II peptides: FIGS. 32a-b
In short: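 Bulk T cell lines primed with 30 μg/ml native Der p I or Der p II for 5-6 days, rested with IL-2/IL-4, then restimulated 3 days with peptides plus irradiated autologous EBV-B cells or PBMs. Proliferation by 16-20 h [3H]thymidine uptake; stimulation index = peptide CPM / medium CPM, averaged over responding patients.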

Substance | T cell stimulation index (S.I.) [1] | estimated range of T cell reactivity (% reactivity of peptide) ([1]; of total reactivity of the Der p I protein) | positive T cell responses, modified peptides [2] | T cell response, Group II peptides [2]
DP I-3: Der p I peptide (TVTPIRMQGGCGSCWAFSGVAATESAYLA) | 3.9 | – | – | –
DP I-21.2: Der p I peptide; unique peptide (SINGNAPAEIDLRQMRTVTPIRMQ) | 3.6 | – | – | –
DP I-23.31: modified Der p I peptide; unique peptide (DEEGVVQESYYRYVAREQSCRRPNAE) | 5.7 | – | – | –
DP I-26.6: modified Der p I peptide; unique peptide (DEGIKDLDAFRHYDGRTIIQRDNGYE) | 5.0 | 12.3%-24 | – | –
DP II-20.9: modified Der p II peptide; unique peptide (DQVDVKDCANHEIKKVLVPGCHGSE) | – | – | all 21 T cell lines responded positively | positive T cell studies
DP II-22.14: DKELEAVFEANQNTKTAKAE; unique peptide | – | – | all 21 T cell lines responded positively | positive T cell studies
DP II-22: QLEAVFEANQNTKTAKIEIKASIDGLEV | – | – | – | positive T cell studies
